Test results as given in the OPERA property sets (Mansouri et al. 2018).

Conditions: not given

Compound | melting point [°C] | boiling point [°C] | log10 vapour pressure (mmHg) | log10 Koc (L/kg) | log10 biodegradation half-life (days) | ready biodegradability | log10 Henry constant (atm·m³/mol)
Clc1ccc2ccc(Cl)nc2c1 | 120 | – | – | – | – | – | –
N#Cc1ccc(N)cc1Cl | 118 | – | – | – | – | – | –
O=C(c1ccccc1O)c1ccccc1O | 59.5 | 333 | – | – | – | – | –
CP(C)C | -85 | 37.5 | – | – | – | – | –
Cc1ccc2c(c1)CCC(C)C2 (stereo not drawn) | 20 | 240 | – | – | – | – | –
N#CCC(N)=C(C#N)C#N | 172 | – | – | – | – | – | –
Cc1ccccc1-c1ccccc1C | 19.5 | 256 | – | – | – | – | –
CCN(C(C)=O)c1ccccc1 | 55 | 260 | – | – | – | – | –
Clc1cc(Cl)c2oc3c(Cl)c(Cl)c(Cl)cc3c2c1 | 219 | – | -8.73 | – | – | – | –
c1ccc2c(c1)sc1ccccc12 | 97 | 332 | -3.69 | 4.05 | 1.56 | not readily biodegradable | –
O=c1[nH]c2c(c(=O)n1C1CCCCC1)CCC2 | 316 | – | -8.82 | 2.14 | – | – | –
N#CCO | – | 183 | – | – | – | – | –
CC(C)S | -130 | 52.5 | 2.44 | – | – | – | –
CC(C)(C)C=O | 6 | 77.5 | – | – | – | readily biodegradable | –
CC(O)COCc1c(Cl)ccc(Cl)c1Cl (stereo not drawn) | – | – | -4 | – | – | – | –
OCc1ccc(Cl)c(Cl)c1 | 36 | 150 | – | – | – | – | –
CN(O)CCO | – | – | – | – | – | readily biodegradable | –
O=C=Nc1ccc(-c2ccccc2)cc1 | 56 | 283 | – | – | – | – | –
C=CCOC1=NS(=O)(=O)c2ccccc21 | 138 | – | – | – | – | not readily biodegradable | –
Cc1ccc(Cl)c(N)c1 | 29.5 | 229 | – | – | – | – | –
COC(=O)c1sccc1N | 65 | – | – | – | – | – | –
CCN(CC)CCOC(=O)[C@@H]1N2C(=O)[C@@H](NC(=O)Cc3ccccc3)[C@H]2SC1(C)C.I | 178 | – | – | – | – | – | –
O=C1C=CC(=O)C(c2ccccc2)=C1 | 114 | – | – | – | – | – | –
ClC(Cl)(Cl)C1CO1 (stereo not drawn) | – | 149 | – | – | – | – | –
CC(C)C(Nc1ccc(C(F)(F)F)cc1Cl)C(=O)OC(C#N)c1cccc(Oc2ccccc2)c1 (stereo not drawn) | – | – | – | 5.71 | – | – | –
CCOC(=O)C#CC(=O)OCC | 1.5 | – | – | – | – | – | –
CCCc1cc(C(N)=S)ccn1 | 137 | – | – | – | – | – | –

Compound | melting point [°C] | boiling point [°C] | log10 vapour pressure (mmHg) | log10 Koc (L/kg) | log10 biodegradation half-life (days) | ready biodegradability | log10 Henry constant (atm·m³/mol)
Cc1c(N(C)C)c(=O)n(-c2ccccc2)n1C | 134 | – | – | – | – | – | –
CCCCOCCOCC(C)O (stereo not drawn) | – | 230 | – | – | – | – | –
CN(CCO)c1nc2c(c(=O)n(C)c(=O)n2C)n1C | 105 | – | – | – | – | – | –
COc1cc(C)ccc1O | 5.5 | 221 | – | – | – | – | -5.88
C=CC(C)C(C)CC (stereo not drawn) | – | 112 | – | – | – | – | –
CC(=O)NC1C(O)OC(CO)C(O)C1O (stereo not drawn) | – | – | – | – | – | readily biodegradable | –
O=COCC=Cc1ccccc1 | 0 | 252 | – | – | – | – | –
NS(=O)(=O)c1ccc(S(=O)(=O)CCO)cc1 | 165 | – | – | – | – | – | –
O=C(CCl)Oc1ccccc1 | 44.5 | 232 | – | – | – | – | –
Cc1cccc2cc3ccccc3cc12 | 85.5 | – | – | – | – | – | –
N#CCC(=O)O | 66 | – | – | – | – | readily biodegradable | –
c1ccc2c(c1)CC1c3ccccc3CCN1C2 (stereo not drawn) | 85 | – | – | – | – | not readily biodegradable | –
O=C(O)COCC(=O)O | 148 | – | – | – | – | – | –
C1CCSCC1 | 19 | 142 | 0.895 | – | – | – | –
O=C(O)c1c(Cl)ccc(Cl)c1Cl | 124 | – | -3.26 | – | – | not readily biodegradable | –
C=CC(=O)NC(C)(C)CC(C)=O | 57.5 | – | – | – | – | – | –
CC(=O)N1CCC(=O)CC1 | – | 218 | – | – | – | – | –
CC1CCCCCC1 | – | 134 | – | – | – | – | –
O=C1C2(Cl)C3(Cl)C4(Cl)C(Cl)(Cl)C5(Cl)C3(Cl)C1(Cl)C5(Cl)C24Cl (stereo not drawn) | – | – | -6.65 | 4.2 | – | – | –
C=CC1CO1 (stereo not drawn) | -135 | 68 | – | – | – | – | –
Cc1cccc2[nH]ccc12 | 5 | 267 | – | – | – | – | –
CC(=O)c1ccc2ccccc2c1O | 101 | – | – | – | – | – | –
FC(F)(F)I | – | -22.5 | – | – | – | – | –
c1ccc2c(c1)cc1ccc3cccc4c5ccccc5c2c1c34 | 162 | – | – | – | – | – | –
CCCCF | -134 | 32.5 | 2.76 | – | – | – | –
c1ccc2c(c1)CCCC2 | -35.7 | 208 | -0.434 | – | 0.903 | not readily biodegradable | –
N#CCc1cccc(CC#N)c1 | 33.5 | – | – | – | – | – | –

Same assay, conditions: fish

Compound | log10 biotransformation half-life (days) | log10 BCF
Clc1ccc(-c2c(Cl)ccc(Cl)c2Cl)c(Cl)c1 | 2.61 | –
CCC(C)CCCC(C)C (stereo not drawn) | 0.61 | –
OC(C(F)(F)F)C(F)(F)F | -1.32 | 0.4
Nc1c(Cl)c(Cl)cc(Cl)c1Cl | – | 2.52
ClCBr | -0.74 | 0.6
Clc1cc(Cl)c(-c2c(Cl)c(Cl)cc(Cl)c2Cl)c(Cl)c1Cl | 2.46 | –
CCCCC(CC)COP(=O)(Oc1ccccc1)Oc1ccccc1 (stereo not drawn) | -0.15 | 2.49
Clc1cc2c(oc3c(Cl)c(Cl)c(Cl)c(Cl)c32)c(Cl)c1Cl | 0.9 | 3.45
c1ccc2c(c1)sc1ccccc12 | 0.83 | 3.05
OCc1ccc(Cl)c(Cl)c1 | – | 0.54
O=C(O)c1c(Cl)ccc(Cl)c1Cl | – | 0.54
O=C1C2(Cl)C3(Cl)C4(Cl)C(Cl)(Cl)C5(Cl)C3(Cl)C1(Cl)C5(Cl)C24Cl (stereo not drawn) | – | 3.19
c1ccc2c(c1)CCCC2 | 0.75 | 2.53
